Laboratory results published in patent US4046910A, “Dosage schedule” (The Upjohn Company, priority 1976, dated 1977).
Counter-ions that a name gives are not always drawn.

Experiments:
[1] = tested on: rat passive cutaneous anaphylaxis; assay: rat passive cutaneous anaphylaxis (PCA) test; format: in vivo, rat (female Sprague-Dawley); design: key to Spot Score: total detectable spots divided by number of animals
Description: The compound under review is first tested in the rat passive cutaneous anaphylaxis test system. This test is employed to determine if the compound does inhibit allergic manifestations. A DSCG biologue will inhibit allergic manifestations. The anti-allergy activity of DSCG biologues vary.
Female Sprague-Dawley 250 gm. rats are skin-sensitized with rat anti-ovalbumin homocytotropic antibody that is heat labile and has a passive cutaneous anaphylaxis titer of (1:128). After a 72-hour latency period, the animals are challenged i.v. with a 4 mg. ovalbumin (OA) + 5 mg. Evans blue dye. Thirty minutes later the extravascular bluing that results from antigen antibody combination at the skin site is read. Antibody dilutions are used such that in control animals a 4 mm spot in the lowest detectable spot, and 4 or 5 lower dilutions are used to give a range of antibody in each animal. Four to five animals are used for each variable in the experiment. Percent inhibition of the PCA assay is calculated by comparing the spot scores of DSCG treated rats with the spot scores of control rats. The spot score is the total number of detectable spots over the number of animals.
DSCG Priming Treatment: Passively sensitized rats are injected i.v. 2.0 hours before antigen challenge i.v. Two hours after an i.v. priming dose of 10 mg./kg. DSCG, the rats are challenged with antigen alone.
The time course of the effective life of DSCG in rats is shown in Table I. DSCG was administered i.p. and was followed by i.v. challenge with 4 mg. ovalbumin and 5 mg. of Evans Blue. Spot score was calculated 30 minutes later from a total of four animals for each time point.
The animals are rested 2 hours between primary i.v. DSCG injection and i.v. antigen challenge, including secondary DSCG dosing. In view of Table I, this time period is of such a length that the effect from the initial dose of DSCG is not a significant factor.
The effect of a time lag between priming doses and secondary doses with regard to the drug sparing effect and the responsiveness of the treated mammal to further treatment with DSCG or a DSCG biologue is shown in Table III. Rats were injected once daily with 10 mg./kg. DSCG for three days. Control rats were also injected with 1.0 ml. of saline at the same time. Twenty and 48 hours after the last dose of DSCG in the three dose series all rats were injected with DSCG. 4 mg. ovalbumin, and 5 mg. of Evans Blue dye.
Th sparing effect using a DSCG biologue, the tris(hydroxymethyl)aminomethane salt of 10-chloro-1,4,6,9-tetrahydro-4,6-dioxopyrido[3,2-g]quinoline-2,8-dicarboxylic acid, referred to as Compound 10 Cl in this Example, is shown in the rat PCA of Table IV. When using this compound in a priming situation, 2.0 mg./kg., 1.0 mg./kg., 0.025 mg./kg. and 0.01 mg./kg. give inhibitions of 93, 86, 44 and 0% respectively. The data of Table IV are obtained in the usual manner except that a 48 hour instead of a 72 hour sensitization period was used.

[2] = man; cited from earlier work
[3] = tested on: allergic and anaphylactic conditions; conditions: cited from earlier work
[4] = 10 mg./kg. i.p., 5 min before i.v. challenge
[5] = 10 mg./kg. i.p., 7 min before i.v. challenge
[6] = 10 mg./kg. i.p., 10 min before i.v. challenge
[7] = 10 mg./kg. i.p., 15 min before i.v. challenge
[8] = 10 mg./kg. i.p., 18 min before i.v. challenge
[9] = 10 mg./kg. i.p., 20 min before i.v. challenge
[10] = 10 mg./kg. i.p., 25 min before i.v. challenge
[11] = 10 mg./kg. i.p., 30 min before i.v. challenge
[12] = 10 mg./kg. i.p., 60 min before i.v. challenge

## O=C(O)c1cc(=O)c2c(OCC(O)COc3cccc4oc(C(=O)O)cc(=O)c34)cccc2o1 [DSCG, disodium salt of 1,3-bis(2-carboxychromon-5-yloxy)-2-hydroxypropane]
[1]; 0.1 mg. priming dose
  inhibition given as a priming dose: does not provide any inhibition
[1]; [4]
  % Inhibition: 26%
  Spot Score: 1.67
[1]; [5]
  % Inhibition: 26%
  Spot Score: 1.67
[1]; [6]
  % Inhibition: 73%
  Spot Score: 0.66
[1]; [7]
  % Inhibition: 51%
  Spot Score: 1.00
[1]; [8]
  % Inhibition: 44%
  Spot Score: 1.25
[1]; [9]
  % Inhibition: 33%
  Spot Score: 1.50
[1]; [10]
  % Inhibition: 26%
  Spot Score: 1.67
[1]; [11]
  % Inhibition: 11%
  Spot Score: 2.0
[1]; [12]
  % Inhibition: 11%
  Spot Score: 2.0
[1]; 10 mg./kg. i.p., in 30 minutes
  persistence of inhibiting effect: most of the inhibiting effect of DSCG has disappeared
[1]; 10 mg./kg. i.v. priming, antigen challenge i.v. 2 hours later
  inhibitory effect in rat PCA after priming dose alone: No inhibitory effects are observed
[1]; 10 mg./kg. priming dose
  inhibition given as a priming dose: 79%
[1]; 10 mg./kg., i.v. at challenge
  % Inhibition: 100%
  Spot Score: 0
[1]; 20 hours post priming
  drug sparing effect from the priming dosage: present at 20 hours post priming
[1]; 48 hours post priming
  drug sparing effect from the priming dosage: has disappeared at 48 hours post priming
[1]; high doses in priming and secondary dose situation
  effect of high priming doses on high secondary doses: inhibit the action of high doses of DSCG in the secondary dose situation
[1]; priming 0.1 mg./kg. i.v., secondary DSCG 0.1 mg./kg. with antigen 2 hours later
  Inhibition in Rat PCA: 2%
[1]; priming 0.1 mg./kg. i.v., secondary DSCG 1.0 mg./kg. with antigen 2 hours later
  Inhibition in Rat PCA: 39%
[1]; priming 0.1 mg./kg. i.v., secondary DSCG 10 mg./kg. with antigen 2 hours later
  Inhibition in Rat PCA: 79%
[1]; priming 1.0 mg./kg. i.v., secondary DSCG 0.1 mg./kg. with antigen 2 hours later
  Inhibition in Rat PCA: 27%
[1]; priming 1.0 mg./kg. i.v., secondary DSCG 1.0 mg./kg. with antigen 2 hours later
  Inhibition in Rat PCA: 39%
[1]; priming 1.0 mg./kg. i.v., secondary DSCG 10 mg./kg. with antigen 2 hours later
  Inhibition in Rat PCA: 98%
[1]; priming 10 mg./kg. i.v., secondary DSCG 0.1 mg./kg. with antigen 2 hours later
  Inhibition in Rat PCA: 39%
[1]; priming 10 mg./kg. i.v., secondary DSCG 1.0 mg./kg. with antigen 2 hours later
  Inhibition in Rat PCA: 51%
[1]; priming 10 mg./kg. i.v., secondary DSCG 10 mg./kg. with antigen 2 hours later, mean percent from 15 animals
  Inhibition in Rat PCA: 51%
[1]; saline i.v. 3 times, then DSCG dose 0.1
  % Inhibition in the Rat PCA: 0%
[1]; saline i.v. 3 times, then DSCG dose 1.0
  % Inhibition in the Rat PCA: 11%
[1]; saline i.v. 3 times, then DSCG dose 5.0
  % Inhibition in the Rat PCA: 47%
[1]; saline i.v. 3 times, then DSCG dose 10
  % Inhibition in the Rat PCA: 82%
[1]; secondary DSCG dose 0, 48 hours after last of three daily 10 mg./kg. DSCG
  % Inhibition in the Rat PCA: 0%
[1]; secondary DSCG dose 0.05, 20 hours after last of three daily 10 mg./kg. DSCG
  % Inhibition in the Rat PCA: 47%
[1]; secondary DSCG dose 0.05, 48 hours after last of three daily 10 mg./kg. DSCG
  % Inhibition in the Rat PCA: 2%
[1]; secondary DSCG dose 0.1, 20 hours after last of three daily 10 mg./kg. DSCG
  % Inhibition in the Rat PCA: 52%
[1]; secondary DSCG dose 0.1, 48 hours after last of three daily 10 mg./kg. DSCG
  % Inhibition in the Rat PCA: 0%
[1]; secondary DSCG dose 1.0, 20 hours after last of three daily 10 mg./kg. DSCG
  % Inhibition in the Rat PCA: 58%
[1]; secondary DSCG dose 5.0, 20 hours after last of three daily 10 mg./kg. DSCG
  % Inhibition in the Rat PCA: 20%
[1]; secondary DSCG dose 5.0, 48 hours after last of three daily 10 mg./kg. DSCG
  % Inhibition in the Rat PCA: 65%
[1]; secondary DSCG dose 10, 20 hours after last of three daily 10 mg./kg. DSCG
  % Inhibition in the Rat PCA: 20%
[1]; secondary DSCG dose 10, 48 hours after last of three daily 10 mg./kg. DSCG
  % Inhibition in the Rat PCA: 73%
[2]
  serum half life: approximately 2 minutes
[3]; administered in a prophylactic manner
  relief from allergic and anaphylactic conditions: provides relief from allergic and anaphylactic conditions
[3]; same dose level, significant number of individuals
  inhibition of allergic manifestations on continuing administration: lower levels of inhibition which may be clinically ineffective
